# Data reported in US9056133B2, “Pharmaceutical kit and method for treating cancer” (priority 2012, dated 2015).
# Tests used:
# [1] = Biochemical profile and Ca 19.9 tumoral marker of treated animals at day 40; assay type: in vivo, athymic mice N:NIH(S)-nu
# Description: Also, to evaluate efficacy of AV25CDC 5/3, on orthotopic tumors caused by SW1990 cells, E4 expression was evaluated at day 40, where an average of […] viral particles were found in the tumor indicating an active replication. On the other hand, biochemical parameters were evaluated at day 40, determining amylase, total and direct bilirubin, alkaline phosphatase (ALP) and aspartate aminotransferase (AST).
# Tumoral marker levels Ca 19.9 were also determined.
# [2] = system: SW1990 pancreatic tumoral cell line; test: Combined effect of AV25CDC 5/3 and gemcitabine, MTT cell viability; assay type: cell-based, human; conditions: alone or 24 h after virus at MOI 0.1, MTT six days later
# Description: FIG. 8. In vitro synergic effect of AV25CDC 5/3 and gemcitabine in pancreatic tumoral cell line SW1990. Cells were infected with AV25CDC 5/3, at a MOI of 0.1 and 24 hours later gemcitabine was added at concentrations of 0.01 uM and 0.1 uM. Six days later, cell viability was measured using MTT assay.
# Pancreatic tumoral cell lines (SW1990) were plated and infected with AV25CDC 5/3, at a MOI of 0.1 and 24 hours later, gemcitabine was added in concentrations of 0.01 uM and 0.1 uM. Six days later, cell viability was measured using MTT assay. There was no decrease on viability if only AV25CDC 5/3 is used at a MOI of 0.1, as well as no decrease was found adding gemcitabine at 0.01 uM. Nevertheless, the combination of both produced a decrease in cell viability of 20%. Using a higher concentration of gemcitabine, of 0.1 uM, on its own produced a decrease in viability of 20%, but combined with AV25CDC 5/3 at a MOI of 0.1, the viability decrease of 40%, considering the control (FIG. 8).
smiles,measurement,setting,value
Nc1ccn([C@@H]2O[C@H](CO)[C@@H](O)C2(F)F)c(=O)n1 [gemcitabine],ALP,"[1]; average ± SD, day 40",119.3 ± 25 U/L
same,Amylase,"[1]; average ± SD, day 40",1151 ± 386 U/L
same,Direct bilirubin,"[1]; average ± SD, day 40",0.14 ± 0.02 mg/dL
same,GOT (AST),"[1]; average ± SD, day 40",280 ± 64 U/L
same,GPT (ALT),"[1]; average ± SD, day 40",47 ± 17 U/L
same,Total Bilirubin,"[1]; average ± SD, day 40",0.78 ± 0.05 mg/dL
same,Ca 19.9,"[1]; tumoral marker, individual samples, day 40 after injection of virus",27940 U/ml
same,cytotoxicity at 0.1 µM,"[2]; Homo sapiens, gemcitabine 0.1 uM, vs control, read-out: decrease in cell viability",20%
same,decrease in cell viability,[2]; gemcitabine 0.01 uM,no decrease
